This is an account of results in patent US11787780B2 (CORCEPT THERAPEUTICS INCORPORATED, priority 2020, dated 2023).

A word on the IC50: it is the point on the concentration scale where inhibition reaches its midpoint.

For this test, the target named is glucocorticoid receptor (GR) recombinant ligand binding domain (LBD) (Homo sapiens (Human), UniProt P04150). The test can be described thus: GR binding fluorescence polarisation (FP) assay. To be noted: displacement of fluorescently tagged ligand. The method, then: Binding of test compounds to the glucocorticoid receptor (GR) is determined using a fluorescence polarisation (FP) assay utilising a recombinant ligand binding domain (LBD) of GR. The test compounds are assessed by their ability to displace a fluorescently tagged ligand and detection of the resulting decrease in fluorescence polarisation.
Sequence of glucocorticoid receptor (GR) recombinant ligand binding domain (LBD) (P04150 524-758): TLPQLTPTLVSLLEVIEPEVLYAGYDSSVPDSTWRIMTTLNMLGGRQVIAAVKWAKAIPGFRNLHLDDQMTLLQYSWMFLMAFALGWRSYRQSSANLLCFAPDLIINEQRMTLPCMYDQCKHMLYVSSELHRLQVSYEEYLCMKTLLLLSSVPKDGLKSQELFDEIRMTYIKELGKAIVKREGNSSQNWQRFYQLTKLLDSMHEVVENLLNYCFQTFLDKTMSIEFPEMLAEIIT

In the case of “1-(4-fluorophenyl)-5-(4-(methoxymethyl)-1-((1-propyl-1H-pyrazol-4-yl)sulfonyl)piperidin-4-yl)-1H-indazole [Example 23]”, the IC50 is 1300 nM.

Turning to `C[C@@H]1CN(C(=O)c2ccccc2)CCN1c1ccc2c(cnn2-c2ccc(F)cc2)c1` [Example 2, (R)-(4-(1-(4-fluorophenyl)-1H-indazol-5-yl)-3-methylpiperazin-1-yl)(phenyl)methanone], the IC50 worked out at 1940 nM.

For `CCCn1cc(S(=O)(=O)N2CCN(c3ccc4c(cnn4-c4ccc(F)cc4)c3)C3(CC3)C2)cn1` [Example 3, 1-(4-fluorophenyl)-5-(7-((1-propyl-1H-pyrazol-4-yl)sulfonyl)-4,7-diazaspiro[2.5]octan-4-yl)-1H-indazole], the IC50 was 206 nM. Turning to `CCCn1cc(S(=O)(=O)N[C@H]2CCN(c3cc4cnn(-c5ccc(F)cc5)c4cc3C)C2)cn1` [Example 4, (S)—N-(1-(1-(4-fluorophenyl)-6-methyl-1H-indazol-5-yl)pyrrolidin-3-yl)-1-propyl-1H-pyrazole-4-sulfonamide], the IC50 worked out at 2 nM. The same measure for `CCCn1cc(S(=O)(=O)N(C)[C@H]2CCN(c3cc4cnn(-c5ccc(F)cc5)c4cc3C)C2)cn1` [Example 5, (S)—N-(1-(1-(4-fluorophenyl)-6-methyl-1H-indazol-5-yl)pyrrolidin-3-yl)-N-methyl-1-propyl-1H-pyrazole-4-sulfonamide]: 126 nM. Then `Cc1cc2c(cnn2-c2ccc(F)cc2)cc1N1CCN(S(C)(=O)=O)CC1=O` [Example 7, 1-(1-(4-fluorophenyl)-6-methyl-1H-indazol-5-yl)-4-(methylsulfonyl)piperazin-2-one], with 6110 nM. Then `CCCn1cc(S(=O)(=O)N2CC[C@@H](c3ccc4c(cnn4-c4ccc(F)cc4)c3)C[C@H]2C)cn1` [Example 9, 1-(4-fluorophenyl)-5-((2R,4R)-2-methyl-1-((1-propyl-1H-pyrazol-4-yl)sulfonyl)piperidin-4-yl)-1H-indazole], with 527 nM; and `CCCn1cc(S(=O)(=O)N2CC=C(c3cc4cnn(-c5ccc(F)cc5)c4cc3C)C[C@H]2C)cn1` [Example 11, (R)-1-(4-fluorophenyl)-6-methyl-5-(2-methyl-1-((1-propyl-1H-pyrazol-4-yl)sulfonyl)-1,2,3,6-tetrahydropyridin-4-yl)-1H-indazole], with 258 nM; and `CCCn1cc(S(=O)(=O)N2CC[C@@H](c3cc4cnn(-c5ccc(F)cc5)c4cc3C)C[C@H]2C)cn1` [Example 12, 1-(4-fluorophenyl)-6-methyl-5-((2R,4R)-2-methyl-1-((1-propyl-1H-pyrazol-4-yl)sulfonyl)piperidin-4-yl)-1H-indazole], with 236 nM. As to `CCCn1cc(S(=O)(=O)N2CC[C@H](c3cc4cnn(-c5ccc(F)cc5)c4cc3C)C[C@H]2C)cn1` [Example 13, 1-(4-fluorophenyl)-6-methyl-5-((2R,4S)-2-methyl-1-((1-propyl-1H-pyrazol-4-yl)sulfonyl)piperidin-4-yl)-1H-indazole], the IC50 worked out at 82 nM.

Take `O=S(=O)(c1cnn(CC2CC2)c1)N1CCN(c2ccc3c(cnn3-c3ccc(F)cc3)c2)C[C@H]1CO` [Example 14, (S)-(1-((1-(cyclopropylmethyl)-1H-pyrazol-4-yl)sulfonyl)-4-(1-(4-fluorophenyl)-1H-indazol-5-yl)piperazin-2-yl)methanol]: the 50% inhibitory concentration (IC50) worked out at 357 nM. The same measure for `COC[C@@H]1CN(c2ccc3c(cnn3-c3ccc(F)cc3)c2)CCN1S(=O)(=O)c1cnn(CC2CC2)c1` [Example 15, (S)-5-(4-((1-(cyclopropylmethyl)-1H-pyrazol-4-yl)sulfonyl)-3-(methoxymethyl)piperazin-1-yl)-1-(4-fluorophenyl)-1H-indazole]: 455 nM; for `CCCn1cc(S(=O)(=O)N2CCC(C(=O)OCC)(c3ccc4c(cnn4-c4ccc(F)cc4)c3)CC2)cn1` [Example 21, Ethyl 4-(1-(4-fluorophenyl)-1H-indazol-5-yl)-1-((1-propyl-1H-pyrazol-4-yl)sulfonyl)piperidine-4-carboxylate]: 884 nM; for `CCCn1cc(S(=O)(=O)N2CCC(C(=O)N3CCCC3)(c3cc4cnn(-c5ccc(F)cc5)c4cc3C)CC2)cn1` [Example 22, (4-(1-(4-fluorophenyl)-6-methyl-1H-indazol-5-yl)-1-((1-propyl-1H-pyrazol-4-yl)sulfonyl)piperidin-4-yl)(pyrrolidin-1-yl)methanone]: 857 nM. In the case of `Cn1cc(S(=O)(=O)C2CCN(c3ccc4c(cnn4-c4ccc(F)cc4)c3)CC2)cn1` [Example 33, 1-(4-fluorophenyl)-5-(4-((1-methyl-1H-pyrazol-4-yl)sulfonyl)piperidin-1-yl)-1H-indazole], the concentration for half-maximal inhibition (IC50) came out at 67 nM. Then `Cn1cc(S(=O)(=O)N2CCN(c3ccc4c(cnn4-c4ccc(F)cc4)c3)[C@H](Cc3ccccc3)C2)cn1` [Example 34], with 1100 nM. Then `C[C@@H]1CN(S(=O)(=O)C2CCCC2)CCN1c1ccc2c(cnn2-c2ccc(F)cc2)c1` [Example 35], with 1810 nM. Then `C[C@H]1CN(S(=O)(=O)c2cnn(C)c2)CCN1c1ccc2c(cnn2-c2ccc(F)cc2)c1` [Example 36], with 3550 nM; and `C[C@@H]1CN(c2ccc3c(cnn3-c3ccc(F)cc3)c2)CCN1S(=O)(=O)c1cnn(C)c1` [Example 37], with 396 nM; and `C[C@H]1CN(c2ccc3c(cnn3-c3ccc(F)cc3)c2)CCN1S(=O)(=O)c1cnn(C)c1` [Example 38], with 1950 nM. For the molecule `C[C@@H]1CN(c2ccc3c(cnn3-c3ccc(F)cc3)c2)CCN1S(=O)(=O)c1ccc(F)c(F)c1` [Example 40], the IC50 worked out at 546 nM.

Consider `Cn1cc(S(=O)(=O)N2CCN(c3ccc4c(cnn4-c4ccc(F)cc4)c3)C[C@H]2Cc2ccccc2)cn1` [Example 41], for which the IC50 is 937 nM. The same measure for `CC(C)C[C@@H]1CN(c2ccc3c(cnn3-c3ccc(F)cc3)c2)CCN1S(=O)(=O)c1cnn(C)c1` [Example 42]: 2320 nM. Consider `CC1(C)CN(c2ccc3c(cnn3-c3ccc(F)cc3)c2)CCN1S(C)(=O)=O` [Example 45], for which the half-maximal inhibitory concentration (IC50) was 562 nM.

Regarding `CCCn1cc(S(=O)(=O)N2CCN(c3ccc4c(cnn4-c4ccc(F)cc4)c3)CC2(C)C)cn1` [Example 46], the IC50 came to 1130 nM. The same measure for `CS(=O)(=O)N1C[C@@H]2C[C@H]1CN2c1ccc2c(cnn2-c2ccc(F)cc2)c1` [Example 47]: 1410 nM; for `CS(=O)(=O)N1CC2CC(C1)N2c1ccc2c(cnn2-c2ccc(F)cc2)c1` [Example 48]: 4050 nM; for `CCCn1cc(S(=O)(=O)N2CCN(c3ccc4c(cnn4-c4ccc(F)cc4)c3C)C[C@H]2C)cn1` [Example 49]: 8220 nM. Then `C[C@@H]1CN(S(C)(=O)=O)[C@@H](C)CN1c1ccc2c(cnn2-c2ccc(F)cc2)c1` [Example 51], with 360 nM; and `COC(=O)C1CN(c2ccc3c(cnn3-c3ccc(F)cc3)c2)CCN1S(=O)(=O)c1cnn(CC2CC2)c1` (centres unmarked) [Example 52], with 700 nM; and `C[C@@H]1CN(c2ccc3c(cnn3-c3ccc(F)cc3)c2)CCN1S(=O)(=O)c1cnn(C2CCOCC2)c1` [Example 53], with 244 nM. Then `Cc1nn(C2CCCC2)cc1S(=O)(=O)N1CCN(c2ccc3c(cnn3-c3ccc(F)cc3)c2)C[C@H]1C` [Example 54], with 142 nM; and `CCCn1cc(S(=O)(=O)N2C[C@H](C)N(c3ccc4c(cnn4-c4ccc(F)cc4)c3)C[C@H]2C)cn1` [Example 55], with 21 nM; and `CCCn1cc(S(=O)(=O)N2CCN(c3ccc4c(cnn4-c4ccc(F)cc4)c3)C[C@H]2C)c(C)n1` [Example 57], with 249 nM.

With `C[C@@H]1CN(S(C)(=O)=O)[C@H](C)CN1c1ccc2c(cnn2-c2ccc(F)cc2)c1` [Example 62], the IC50 was 431 nM. For `CCCNS(=O)(=O)N1CCN(c2ccc3c(cnn3-c3ccc(F)cc3)c2)C[C@H]1C` [Example 63], the IC50 is 215 nM. Turning to `CC(C)Cn1cc(S(=O)(=O)N2CCN(c3ccc4c(cnn4-c4ccc(F)cc4)c3)C[C@H]2C)cn1` [Example 64], the IC50 was found to be 151 nM. Regarding `CCCn1cc(S(=O)(=O)N2CCN(c3ccc4c(cnn4-c4ccc(F)cc4)c3)CC23CCC3)cn1` [Example 66], the IC50 is 429 nM. The same measure for `CCCn1cc(S(=O)(=O)N2CCN(c3cc4cnn(-c5ccc(F)cc5)c4cn3)CC23CC3)cn1` [Example 69]: 1160 nM; for `CCCn1cc(S(=O)(=O)N2CCN(c3cnc4c(cnn4-c4ccc(F)cc4)c3)CC23CC3)cn1` [Example 71]: 238 nM; for `CCCn1cc(S(=O)(=O)N2CCN(c3ccc4c(cnn4-c4ccc(F)cc4)n3)CC23CC3)cn1` [Example 72]: 3740 nM. Take `CCCn1cc(S(=O)(=O)N2CCN(c3cc4nnn(-c5ccc(F)cc5)c4cc3C)CC23CC3)cn1` [Example 74]: the IC50 turned out to be 66 nM. Regarding `CCCn1cc(S(=O)(=O)N2CCN(c3cc4cnn(-c5ccc(OC)cc5)c4cc3C)C[C@H]2C)cn1` [Example 75], the IC50 worked out at 325 nM. On to `CCCn1cc(S(=O)(=O)N2CCN(c3cc4cnn(-c5ccc(F)c(F)c5)c4cc3C)C[C@H]2C)cn1` [Example 76], for which the half-inhibitory concentration (IC50) turned out to be 83 nM. Then `CCCn1cc(S(=O)(=O)N2CCN(c3cc4cnn(-c5ccc(OC)nc5)c4cc3C)C[C@H]2C)cn1` [Example 77], with 1040 nM. Then `CCCn1cc(S(=O)(=O)N2C3CCC2CN(c2cc4cnn(-c5ccc(F)cc5)c4cc2C)C3)cn1` [Example 83], with 515 nM. In the case of `Cc1cc2c(cnn2-c2ccc(F)cc2)cc1N1CCC2(CCCN2S(C)(=O)=O)CC1` [Example 88], the IC50 was 7230 nM. As for `CCCn1cc(S(=O)(=O)N2CCCC23CCN(c2cc4cnn(-c5ccc(F)cc5)c4cc2C)CC3)cn1` [Example 89], the IC50 amounted to 434 nM.

On to `Cc1cc2c(cnn2-c2ccc(F)cc2)cc1N1CCC2(CCN(S(C)(=O)=O)CC2)C1` [Example 95], for which the half-inhibitory concentration (IC50) amounted to 612 nM.

Consider `Cc1cc2c(cnn2-c2ccc(F)cc2)cc1N1CCC2(CCN(S(=O)(=O)c3cnn(C)c3)CC2)C1` [Example 96], for which the half-inhibitory concentration (IC50) was 2560 nM.
